Reference: patent publication US20240116946A1 (Gilead Sciences, Inc., priority 2022, published 2024)
Where two headings read alike, the source gives them in different places.

Assays:
[1] = tested on: SARS-CoV-2-NLuc; assay: microbe, parasite or virus in culture; format: cell-based, SARS Coronavirus 2
[2] = molecular target: recombinant SARS-CoV-2 Main protease (Mpro) (Severe acute respiratory syndrome coronavirus 2 (2019-nCoV) (SARS-CoV-2), UniProt P0DTD1); assay: Cov Mpro Biochemical IC50 Assay; settings: recombinant SARS-CoV-2 Mpro 7.5 nM, fluorogenic peptide substrate 40 μM; read-out: MPro IC50
[3] = Severe acute respiratory syndrome coronavirus, 48 h, read-out: MPro EC50
[4] = Severe acute respiratory syndrome coronavirus, 48 h; read-out: MPro EC50

| SMILES | EC50 [1, 3] | IC50 [2] | EC50 [1, 4] |
| --- | --- | --- | --- |
| COc1cc(-c2cc3c(s2)c(=O)n(-c2cncc4nnn(C)c24)c(=O)n3CCC#N)c(C#N)cc1F [Example 878] | 90 nM | 15.8 nM | – |
| Cc1cncc(-n2c(=O)c3sc(-c4cc(Cl)ccc4C#N)cc3n(CCC#N)c2=O)c1 [Example 879] | – | 4.33 nM | 20.4 nM |
| Cc1cncc(-n2c(=O)c3sc(-c4ccc(F)cc4C#N)cc3n(CCC#N)c2=O)c1 [Example 880] | – | 10.6 nM | 42.3 nM |
| Cc1cncc(-n2c(=O)c3sc(-c4cc(F)ccc4C#N)cc3n(CCC#N)c2=O)c1 [Example 881] | – | 11.7 nM | 91.9 nM |
| C#Cc1cc(F)c(OC)cc1-c1cc2c(s1)c(=O)n(-c1cncc3nnn(C4CC4)c13)c(=O)n2CCC#N [Example 882] | 69.7 nM | 26.3 nM | – |
| N#CCCn1c(=O)n(-c2cncc3nnn(C4CC4)c23)c(=O)c2sc(-c3ccc(F)cc3Cl)cc21 [Example 883] | 233 nM | 30.3 nM | – |
| COc1cnc(Cl)c(-c2cc3c(s2)c(=O)n(-c2cncc4nnn(C)c24)c(=O)n3CCC#N)c1 [Example 884] | 126 nM | 31.4 nM | – |
| COc1cnc(Cl)c(-c2cc3c(s2)c(=O)n(-c2cncc(C)c2)c(=O)n3CCC#N)c1 [Example 885] | – | 7.57 nM | 22.9 nM |
| Cn1nnc2cncc(-n3c(=O)c4sc(-c5cc(Cl)ccc5C#N)cc4n(CCC#N)c3=O)c21 [Example 886] | 144 nM | 36.1 nM | – |
| COc1cnc(C#N)c(-c2cc3c(s2)c(=O)n(-c2cncc(C)c2)c(=O)n3CCC#N)c1 [Example 887] | – | 10.4 nM | 65.4 nM |
| N#CCCn1c(=O)n(-c2cncc(C(F)F)c2)c(=O)c2sc(-c3ccccc3C#N)cc21 [Example 888] | – | 25.8 nM | 91.5 nM |
| COc1cnc(Cl)c(-c2cc3c(s2)c(=O)n(-c2cncc(C(F)F)c2)c(=O)n3CCC#N)c1 [Example 889] | – | 14.2 nM | 64.8 nM |
| N#CCCn1c(=O)n(-c2cncc(C(F)(F)F)c2)c(=O)c2sc(-c3ccccc3C#N)cc21 [Example 890] | – | 75 nM | 247 nM |
| COc1cc(-c2cc3c(s2)c(=O)n(-c2cnc(F)c(C)c2)c(=O)n3CCC#N)c(Cl)cc1F [Example 891] | 29.6 nM | 9.38 nM | – |
| COc1cc(-c2cc3c(s2)c(=O)n(-c2nncc4c(C)nn(C)c24)c(=O)n3CCC#N)c(Cl)cc1F [Example 892] | 32.9 nM | 13.5 nM | – |
| COc1cc(-c2cc3c(s2)c(=O)n(-c2cnccn2)c(=O)n3CCC#N)c(Cl)cc1F [Example 893] | 136 nM | 22.1 nM | – |
| COc1cc(-c2cc3c(s2)c(=O)n(-c2cncc(C)n2)c(=O)n3CCC#N)c(Cl)cc1F [Example 894] | 6.55 nM | 3.2 nM | – |
| COc1cc(-c2cc3c(s2)c(=O)n(-c2cncc4nn(C)c(C)c24)c(=O)n3CCC#N)c(C#N)cc1F [Example 895] | 218 nM | 8.43 nM | – |
| Cc1c2c(-n3c(=O)c4sc(-c5ccccc5C#N)cc4n(CCC#N)c3=O)cncc2nn1C [Example 896] | – | 59.2 nM | 479 nM |
| COc1cc(-c2ccc3c(=O)n(-c4cncc5ccccc45)c(=O)n(CC#N)c3c2)c(Cl)cc1F [Example 897] | 85.4 nM | 11.2 nM | – |
| COc1cc(-c2cc3c(s2)c(=O)n(-c2cncc4cnn(C)c24)c(=O)n3C)c(Cl)cc1F [Example 898, 6-(2-chloro-4-fluoro-5-methoxyphenyl)-1-methyl-3-(1-methyl-1H-pyrazolo[4,3-c]pyridin-7-yl)thieno[3,2-d]pyrimidine-2,4(1H,3H)-dione] | 11.9 nM | 13 nM | – |
| COc1cc(-c2cc3c(s2)c(=O)n(-c2cncc4cccc(F)c24)c(=O)n3CCC#N)c(Cl)cc1F [Example 901, 3-(6-(2-chloro-4-fluoro-5-methoxyphenyl)-3-(5-fluoroisoquinolin-4-yl)-2,4-dioxo-3,4-dihydrothieno[3,2-d]pyrimidin-1(2H)-yl)propanenitrile] | 5.16 nM | 2.53 nM | – |
| COc1ccc(C#N)c(-c2cc3c(cc2F)c(=O)n(-c2cncc4ccccc24)c(=O)n3CCC#N)c1 [Example 902] | 134 nM | 87.3 nM | – |

| SMILES | EC50 [1, 3] | IC50 [2] | EC50 [1, 4] |
| --- | --- | --- | --- |
| COc1cc(-c2nc3c(s2)c(=O)n(-c2cncc4ccccc24)c(=O)n3CCC#N)c(Cl)cc1F [Example 903] | 13.1 nM | 8.52 nM | – |
| COc1cc(-c2cc3c(s2)c(=O)n(-c2cncc4cccnc24)c(=O)n3CCC#N)c(Cl)cc1F [Example 904, 3-(6-(2-chloro-4-fluoro-5-methoxyphenyl)-3-(1,6-naphthyridin-8-yl)-2,4-dioxo-3,4-dihydrothieno[3,2-d]pyrimidin-1(2H)-yl)propanenitrile] | 1.34 nM | 4.29 nM | – |
| N#CCCn1c(=O)n(-c2cncc3cccnc23)c(=O)c2sc(-c3ccccc3Cl)cc21 [Example 905] | 4.17 nM | 5.93 nM | – |
| COc1cc(-c2cc3c(s2)c(=O)n(-c2cncc4ccc(C)nc24)c(=O)n3CCC#N)c(Cl)cc1F [Example 906] | 2.41 nM | 4.35 nM | – |
| Cc1ccc2cncc(-n3c(=O)c4sc(-c5ccccc5Cl)cc4n(CCC#N)c3=O)c2n1 [Example 907] | 6.97 nM | 5.81 nM | – |
| COc1cc(-c2cc3c(s2)c(=O)n(-c2cncc4c2CCCC4)c(=O)n3CCC#N)c(Cl)cc1F [Example 908] | 6.84 nM | 7.52 nM | – |
| COc1cc(-c2cc3c(s2)c(=O)n(-c2cncc4nn(C)cc24)c(=O)n3CCC#N)c(Cl)cc1F [Example 909] | 12.3 nM | 5.94 nM | – |
| CCn1ncc2cncc(-n3c(=O)c4sc(-c5cc(OC)c(F)cc5Cl)cc4n(CCC#N)c3=O)c21 [Example 910] | 4.35 nM | 4.34 nM | – |
| COc1cc(-c2cc3c(s2)c(=O)n(-c2cncc4cnn(CC(F)F)c24)c(=O)n3CCC#N)c(Cl)cc1F [Example 911] | 11.8 nM | 13.2 nM | – |
| COCCn1ncc2cncc(-n3c(=O)c4sc(-c5cc(OC)c(F)cc5Cl)cc4n(CCC#N)c3=O)c21 [Example 912] | 4.36 nM | 4.9 nM | – |
| CCn1cc2cncc(-n3c(=O)c4sc(-c5cc(OC)c(F)cc5Cl)cc4n(CCC#N)c3=O)c2n1 [Example 913] | 4.53 nM | 4.31 nM | – |
| COCCn1cc2cncc(-n3c(=O)c4sc(-c5cc(OC)c(F)cc5Cl)cc4n(CCC#N)c3=O)c2n1 [Example 914] | 10.9 nM | 4.76 nM | – |
| COc1cc(-c2cc3c(s2)c(=O)n(-c2cncc4ncccc24)c(=O)n3CCC#N)c(Cl)cc1F [Example 915] | 19.4 nM | 8.9 nM | – |
| COc1cc(-c2cc3c(s2)c(=O)n(-c2c(C)ccnc2F)c(=O)n3CCC#N)c(Cl)cc1F [Example 916] | 30.3 nM | 11.5 nM | – |
| COc1cc(-c2cc3c(s2)c(=O)n(-c2cncc4cnccc24)c(=O)n3CCC#N)c(Cl)cc1F [Example 917] | 6.09 nM | 7.5 nM | – |
| COc1cc(-c2cc3c(s2)c(=O)n(-c2cncc4nn(CC(F)(F)F)c(C)c24)c(=O)n3CCC#N)c(Cl)cc1F [Example 918] | 43.1 nM | 24.3 nM | – |
| COc1cc(-c2cc3c(s2)c(=O)n(-c2cncc4c2c(C)nn4CC(F)(F)F)c(=O)n3CCC#N)c(Cl)cc1F [Example 919] | 366 nM | 926 nM | – |
| COc1cc(-c2cc3c(s2)c(=O)n(-c2cncc4cccc(Cl)c24)c(=O)n3CCC#N)c(Cl)cc1F [Example 921] | 1.92 nM | 1.42 nM | – |
| COc1cc(-c2cc3c(s2)c(=O)n(-c2cncc4cnsc24)c(=O)n3CCC#N)c(Cl)cc1F [Example 922] | > 1000 nM | 2.8 nM | – |
| COc1cc(-c2cc3c(s2)c(=O)n(-c2cncc4ccncc24)c(=O)n3CCC#N)c(Cl)cc1F [Example 923, 3-[6-(2-chloro-4-fluoro-5-methoxy-phenyl)-3-(2,6-naphthyridin-4-yl)-2,4-dioxo-thieno[3,2-d]pyrimidin-1-yl]propanenitrile] | 2 nM | 4.3 nM | – |
| COc1cc(-c2cc3c(s2)c(=O)n(-c2cncc(C4CC4)c2)c(=O)n3CCC#N)c(Cl)cc1F [Example 924] | 5.31 nM | 2.52 nM | – |
| COc1cc(-c2cc3c(s2)c(=O)n(-c2cncc4c2c(C)nn4C)c(=O)n3CCC#N)c(Cl)cc1F [Example 925, 3-(6-(2-chloro-4-fluoro-5-methoxyphenyl)-3-(1,3-dimethyl-1H-pyrazolo[3,4-c]pyridin-4-yl)-2,4-dioxo-3,4-dihydrothieno[3,2-d]pyrimidin-1(2H)-yl)propanenitrile] | 6.55 nM | 6.13 nM | – |
